One data set has as its system NTM strains. Nature of the data set: Checkerboard synergy testing, summary over all strains tested. Type of data set: cell-based, nontuberculous mycobacteria. To be noted: clarithromycin, ethambutol, rifabutin, amikacin, bedaquiline.
The subject of data set [1] is M. intracellulare 20-S-13. Briefly: Checkerboard antibacterial synergy testing of EBO pairwise combinations. The format is cell-based. To be noted: M. intracellulare 20-S-13, clarithromycin resistant strain. On the procedure:
Frozen stocks of the drugs were prepared at 5 or 2 mg/ml and frozen in aliquots at −20° C. On the day of the experiment the stocks were thawed and diluted to the appropriate concentration. Middlebrook 7H9 broth and agar, CA-MH agar and Middlebrook OADC were all purchased from Becton-Dickinson and Company (Sparks, MD).
M. avium 2285R (Verma et al. Microbiol (2019) 10: 693) and M intracellulare DNA000111 were obtained from Diane Ordway (Colorado State University, Fort Collins, CO). M. chimaera 20-S-05 and the macrolide/bedaquiline-resistant M. intracellulare 20-S-13 isolate were obtained from Barbara Brown-Elliott (Mycobacteria/Nocardia Research Laboratory, University of Texas Health Science Center, Tyler Tx). […]
The checkerboard methodology was used to test for synergy and antagonism using Middlebrook 7H9+5% OADC (Dubos et al. Am Rev Tuberc (1947) 56:334-45) as the microbiology growth media. […] Synergistic or antagonistic activity was determined using the sum of the fractional inhibitory concentration (ΣFIC) index. The FTC index is calculated as the sum of FTC A+FTC B, where FTC A is the MIC of drug A in the combination of drugs A and B divided by the MIC of drug A alone, plus the MIC of drug B in the combination of drugs A and B divided by the MIC of drug B alone. […]

For the next data set, the system named is MAC strains. Nature of the data set: Checkerboard synergy testing, summary over the MAC strains tested. Type of data set: cell-based, Mycobacterium avium complex. To be noted: out of a total of 5 MAC strains tested.
The conditions of data set [2]: in vivo; cited from earlier work.

Where a name gives a salt, the structure may show the parent alone.

With `NC[C@H]1OB(O)c2c(OCCCO)cccc21` [EBO, epetraborole hydrochloride], the “Antagonism of EBO activity by second drug” value in the data set on NTM strains is reported as “not antagonized”.

Turning to `CC[C@@H](CO)NCCN[C@@H](CC)CO` [EMB, Ethambutol], in data set [1], the “Interaction between ethambutol and EBO (in words)” value is on record as “indifference”. The “Synergy/additivity with EBO, number of strains” value in the data set on MAC strains was “synergy was observed with 2 strains and additivity with an additional 2 strains”.

As to `NC[C@H]1OB(O)c2c(OCCCO)cccc21` [epetraborole, Epetraborole], in data set [2], the “Course of hematological abnormalities” value was “return to baseline values after discontinuation of epetraborole”; the “RBC parameters (including hemoglobin, RBCs, and reticulocyte counts)” value is reported as “Decreases in RBC parameters”.

(Values after patent publication US20260248831A1, “NON-TUBERCULOSIS MYCOBACTERIA INFECTION TREATMENT” (AN2 Therapeutics, Inc., priority 2021, published 2026).)
